Where two headings read alike, the source gives them in different places.
What was measured:
T27A cells = experiment: Inhibition of T27A cell proliferation by [3H]thymidine incorporation; format: cell-based, murine
Experimental: The murine non-T non-B leukemia cell line T27A (ATCC, Rockville, Md., USA) was cultured in RPMI 1640 medium (Gibco/BRI, Gaithersburg, Md.) supplemented with 25 mM HEPES buffer, 2 mM glutamine, 100 U penicillin/ml, 100 μg streptomycin/ ml and 2 or 10% bovine calf serum (Hyclone, Logan, Utah) in a humidified 5% CO2 atmosphere. Cell viability was determined by Trypan blue exclusion.
DHA (NuChek Prep, Elysan, Minn.) was introduced into RPMI 1640 medium supplemented with 1% (w/v) fatty acid-free bovine serum albumin (Sigma) as described by Spector and Hoak (33) with modifications we have reported (34).
Liposomes were prepared fresh for each use. The bulk of the lipids was 18:0, 18:1 PC (up to 90 mol %), with 10 mol % 18:0, 18:1 PE added to augment fusion between liposomes and the cell-surface membrane. The control contained no additional lipids; the experimental groups contained up to an additional 15 mol % 18:0, 22:6 PC or up to 0.43 mol % 18:0, MTX-PC or 22:6, MTX-PC. The solvent was evaporated under nitrogen and the lipids dried under vacuum for 2 h. The lipids were rehydrated in RPMI medium, and multilamellar vesicles were prepared by vortexing 1 ml of lipids at a concentration of 2 mg/ml. Liposomes (small unilamellar vesicles) were created by sonicating the multilamellar vesicles for 15 min on ice under nitrogen with a Heat Systems W380 disruptor (Farmingdale, N.Y.) set at 1 s cycle time, 60% duty and 3-7% output. Liposome suspensions were centrifuged at low speed (3700 r.p.m.; 2300 g) to remove particulate material and sterile filtered through a 0.2-μm filter. An aliquot of each liposome preparation was tested by thin-layer chromatography to assure that hydrolysis had not occurred.
All concentrations given are final concentrations in the wells. […] Control liposomes were made from 1 mM 18:0, 18:1 PC/ 18:0, 18:1 PE (9/1, mol:mol). After 6 h of incubation, 0.5 μCi/well of [^3H]thymidine (2 Ci/mmol; Amersham, Arlington Heights, Ill.) was added and the incubation continued for an additional 18 h. Cells were then harvested onto glass fiber filters (PHD Cell Harvester; Cambridge Technology, Watertown, Mass.) and the radioactivity present in DNA on the filters was measured by liquid scintillation counting.
The IC50 for each agent alone was determined by non-linear curve fitting with the software package SigmaPlot (SPSS, Chicago, Ill.).

[1] = previous study (26); cited from earlier work
[2] = tested on: several different cell types; details: variety of assays in vitro (11, 37-39); cited from earlier work
[3] = (35); cited from earlier work
human neoplastic cells = details: (1); cited from earlier work
[4] = lipid included in liposomes of 1 mM 18:0,18:1 PC/18:0,18:1 PE (9:1), 24 h, read-out: IC50, inhibition of proliferation

For CCCCCCCCCCCCCCCCCC(=O)OC[C@H](COP(=O)([O-])OCC[N+](C)(C)C)OC(=O)CC[C@H](NC(=O)c1ccc(N(C)Cc2cnc3nc(N)nc(N)c3n2)cc1)C(=O)O [18:0, MTXγ-PC], the IC50 (T27A cells; [4]) was 2110 nM.
In the case of CC/C=C\C/C=C\C/C=C\C/C=C\C/C=C\C/C=C\CCC(=O)OC[C@H](COP(=O)([O-])OCC[N+](C)(C)C)OC(=O)CC/C=C\C/C=C\C/C=C\C/C=C\C/C=C\C/C=C\CC [22:6, 22:6 PC, 1,2-didocosahexaenoyl-sn-glycero-3-phosphocholine], the direct cytotoxicity [1] is given as “comparable to 18:0, 22:6 PC”.
In the case of CC/C=C\C/C=C\C/C=C\C/C=C\C/C=C\C/C=C\CCC(=O)OC[C@H](COP(=O)([O-])OCC[N+](C)(C)C)OC(=O)CC[C@H](NC(=O)c1ccc(N(C)Cc2cnc3nc(N)nc(N)c3n2)cc1)C(=O)O [22:6, MTXγ-PC], the IC50 (T27A cells; [4]) is reported as 1190 nM, the “potency as inhibitor of cell proliferation relative to 18:0, MTXγ-PC” value (T27A cells; liposomes with up to 0.43 mol % (4.2 μM) MTXγ-PC, 24 h) is reported as “more potent inhibitor of cell proliferation than 18:0, MTXγ-PC” and the “inhibition relative to 18:0, MTXγ-PC” value (T27A cells; low concentrations, below 1.5 μM, in liposomes) is reported as “significantly more inhibitory than 18:0, MTXγ-PC”.
With CC/C=C\C/C=C\C/C=C\C/C=C\C/C=C\C/C=C\CCC(=O)O [DHA, docosahexaenoic acid] the “% of maximal proliferation” value (T27A cells; 220 μM DHA alone) was 57%, the predicted % inhibition at 25 µM (T27A cells; Mus musculus, [DHA] 25 μM) was 4.9% and the predicted % inhibition at 50 µM (T27A cells; Mus musculus, [DHA] 50 μM) was 9.8%. For the same molecule, the predicted % inhibition at 100 µM (T27A cells; Mus musculus, [DHA] 100 μM) was 19.7%, the predicted % inhibition at 150 µM (T27A cells; Mus musculus, [DHA] 150 μM) was 29.5% and the predicted % inhibition at 200 µM (T27A cells; Mus musculus, [DHA] 200 μM) was 39.3%. The IC50 (T27A cells; Mus musculus, albumin-bound DHA not conjugated to phospholipids, 24 h, 2% serum, read-out: IC50, inhibition of [3H]thymidine incorporation) was 211000 nM and the “IC50 with albumin delivery relative to IC50 for DHA delivered in ethanol” value (T27A cells; albumin versus ethanol delivery) was “about 5 times”.
For CN(Cc1cnc2nc(N)nc(N)c2n1)c1ccc(C(=O)N[C@@H](CCC(=O)O)C(=O)O)cc1 [MTX, methotrexate], the “range of inhibitory doses reported” value [2] is listed as 15 to 240 nM, the “pKa of α-carboxyl group” value [3] is listed as 3.35 and the “% of maximal proliferation” value (T27A cells; 30 nM MTX alone) is listed as 52%. The IC50 (T27A cells; Mus musculus, 24 h, read-out: IC50 (dose for 50% inhibition of proliferation)) was 30.6 nM, the “Inhibition (Predicted; %)” value (T27A cells; [MTX] 2.7 nm) was 4.3% and the “Inhibition (Predicted; %)” value (T27A cells; [MTX] 9.5 nm) was 15.2%. The “Inhibition (Predicted; %)” value (T27A cells; [MTX] 16.5 nm) was 26.3%, the “Inhibition (Predicted; %)” value (T27A cells; [MTX] 23.3 nm) was 37.2% and the “Inhibition (Predicted; %)” value (T27A cells; [MTX] 26.7 nm) was 42.6%. The “level at which toxic” value (human neoplastic cells) was 20 nM.

From patent US20040052837A1, “Lipid conjugated anti-cancer drugs and methods of use thereof” (priority 2002, published 2004)
